Source: PubChem BioAssay (NCI)
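Each compound was tested at five concentrations against cells in 96-well plates for 48 hours. Here, GI50 denotes the concentration required for 50% inhibition of growth. TGI: total growth inhibition.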 Where a SMILES comes first, the peptide text is derived from it. [ ]: non-standard residue; d: D form. The star is where a group is joined. Phe(4-NO2) = N[CH](Cc1ccc([N+](=O)[O-])cc1)C(=O)O; Cbz = O=C(OCc1ccccc1)*

Legend:
Test in all cases: inhibition of tumour cell growth, NCI panel, 48 h
UACC-257 melanoma = test system: UACC-257 melanoma
SR leukemia = test system: SR leukemia
UACC-62 melanoma = test system: UACC-62 melanoma
KM12 colon = test system: KM12 colon
OVCAR-3 ovarian = test system: OVCAR-3 ovarian
RPMI-8226 leukemia = test system: RPMI-8226 leukemia
MOLT-4 leukemia = test system: MOLT-4 leukemia
TK-10 renal = test system: TK-10 renal
LOX IMVI melanoma = test system: LOX IMVI melanoma
CCRF-CEM leukemia = test system: CCRF-CEM leukemia
SN12C renal = test system: SN12C renal
SK-MEL-2 melanoma = test system: SK-MEL-2 melanoma
MDA-MB-435 = test system: MDA-MB-435
SF-539 CNS = test system: SF-539 CNS
786-0 renal = test system: 786-0 renal

SMILES	TGI (UACC-257 melanoma) [µM]	TGI (SR leukemia) [µM]	TGI (UACC-62 melanoma) [µM]	TGI (KM12 colon) [µM]	TGI (OVCAR-3 ovarian) [µM]	TGI (RPMI-8226 leukemia) [µM]	TGI (MOLT-4 leukemia) [µM]	TGI (TK-10 renal) [µM]	TGI (LOX IMVI melanoma) [µM]	TGI (CCRF-CEM leukemia) [µM]	TGI (SN12C renal) [µM]	TGI (SK-MEL-2 melanoma) [µM]	TGI (MDA-MB-435) [µM]	TGI (SF-539 CNS) [µM]	TGI (786-0 renal) [µM]	GI50 (SR leukemia) [µM]
c1ccc2c(c1)n1c(N3CCCC3)[n+]3ccccc3c1c1c3cccc[n+]3c(N3CCCC3)n21	> 100	> 100	> 100	> 100	> 100	> 100	> 100	> 100	> 100	> 100	> 100	> 100	> 100	> 100	> 100	
CCc1cn(C2CC(CO)C(CO)S2)c(=O)[nH]c1=O (configuration not stated)	> 100	> 100	> 100	> 100	> 100	> 100	> 100	> 100	> 100	> 100	> 100	> 100	> 100	> 100	> 100	> 100
COC(=O)/C=C1\C(=O)Nc2ccc(Br)cc21	3.07	1.56	3.2	4.8	2.95	4.48	4.01	3.09	2.25	1.17	3	1.77	4.76		3.05	
COc1cccc(-c2nc(N)c(C#N)c3c2CCS(=O)(=O)c2ccc(C)cc2-3)c1	> 100	5.14	> 100	> 58.4	> 100		87.1	> 100	> 100	65.1	> 100	> 100	> 100	> 100	> 100	
Clc1nc(NC23CC4CC(CC(C4)C2)C3)nc(NC23CC4CC(CC(C4)C2)C3)n1	> 100	> 100	> 100	> 100	> 100	> 100	> 100	> 100	> 100	> 90.8	> 100	57.6	> 100	> 100	> 100	
NC(N)=NS(=O)(=O)c1ccc(NCc2cccc3c(=O)c4ccc(Cl)cc4oc23)cc1	> 25	> 25	> 24.1	> 25	> 18.3	> 25	> 20.1	> 14.5	> 11.3	> 7.9	> 14.2	> 16.7	> 25	> 13.1	> 12.9	
NC(N)=N/N=C/c1c(Cl)nc2n1CCS2	> 100	> 100	> 100	> 100	> 100	> 100	> 100	> 100	> 100	> 100	> 100	> 100	> 100	> 100	> 100	
CCOC1OC(CO[Si](C)(C)C(C)(C)C)C(O)CC1n1ccc(=O)[nH]c1=O (configuration not stated)	> 100	> 100	> 100	> 100	> 100	> 100	69.1	> 100	31.6		> 100	> 100	> 100	> 100	> 100	
C#CCNC(CCCN=C(N)N)C(=O)O (configuration not stated)	> 100	> 100	> 100	> 100	> 100	> 100	> 100	> 100	> 100	> 100		> 100	> 100		> 100	
O=C(O)c1cc(-c2ccc3cc(O)c(O)cc3c2)ccc1O	> 12.5	> 12.5	> 12.5	> 12.5	> 12.5		> 12.5	> 12.5		> 12.5	> 12.5	> 12.5	> 12.5	> 12.5	> 12.5	
CC(Oc1ccc(Cl)cc1Cl)C(=O)NN1C(=O)CC(=O)NC1=S (configuration not stated)	> 100	> 100	> 100	> 100	> 100	> 100		> 100	> 100		> 100	> 100	> 100	> 100	> 100	
COc1ccc(C(=O)c2[nH]c(Nc3cc(C)ccn3)c(C(=S)Nc3ccccc3)c2N)cc1	32.7	> 100	26.7	39.2	> 100	37.3	> 100	61.5	42.2		39.2	24.2	59.6	35.8	49.7	
COc1ccccc1NC(=S)Nc1ccccn1	> 100	> 100	> 100	> 100	> 100	> 100	> 100	> 100	> 100	> 100		> 100	> 100	> 100	> 100	
N#Cc1ccccc1NC(=O)C(O)C(O)C(O)C(O)C=O (configuration not stated)	> 100	> 100	> 100	> 100	> 100		> 100	> 100	> 100	> 100	> 100	> 100	> 100	> 100	> 100	
CN(C)/C=N/S(=O)(=O)c1nn2c(C=O)c(-c3ccc(-c4ccccc4)cc3)nc2s1	9.31	1.89	6.45	7.36	3.73	3		3.83	2.76	0.647	3.19	8.24	4.8	7.54	2.99	
COc1cc(C)cc2c1C(=O)C(NC(C)=O)=CC2=O	> 100	> 100	> 100	> 100	> 100	> 100	88.7	> 100		> 100	> 100	> 100	31.3	> 100	> 100	
CSCCCNC(=O)c1csc(-c2csc(CCNC(=O)CNC(=O)OC(C)(C)C)n2)n1	> 100	> 100	> 100	> 100	> 100		> 100	> 100	> 100	> 100	> 100	> 100	> 100	> 100	> 100	
CC1=NN(c2ccccc2Cl)C2(C1)C(Cl)C(=O)N2c1nc2ccccc2s1 (configuration not stated)	> 100	49.6	> 100	> 100	53.1	58.6	91.6	> 100	33.7		> 100	> 100	> 100		> 100	
NNC(=O)c1cc(Cl)ccc1NC(=O)C12CC3CC(CC(C3)C1)C2	96.2	88.3	> 100	> 100	> 100	69.7	> 100	> 100	> 100		62.2	> 100	> 100	> 100	79.9	
CCOC(=O)CCC(NC(=O)OCc1ccccc1)C(=O)NC(CCC(=O)OCC)C(=O)NC(CCC(=O)OCC)C(=O)NC(CCC(=O)OCC)C(=O)NC(CCC(=O)OCC)C(=O)NC(Cc1ccc([N+](=O)[O-])cc1)C(=O)NC(CCC(=O)OCC)C(=O)NC(CCC(=O)OCC)C(=O)NC(CCC(=O)OCC)C(=O)NC(CCC(=O)OCC)C(=O)NC(CCC(=O)OCC)C(=O)OCC (configuration not stated) (Cbz-E(OEt)E(OEt)E(OEt)E(OEt)E(OEt)[Phe(4-NO2)]E(OEt)E(OEt)E(OEt)E(OEt)E(OEt)-OEt; configuration not given here)		> 50	> 50	> 50	> 50	> 50	> 50	> 50	> 50	> 50	> 50	> 50	> 50	> 50	> 50	
O=C1Nc2ccccc2C1(O)Cc1ccccn1 (configuration not stated)	> 100	> 100	> 100	> 100	> 100	> 100		> 100	> 100	> 100	> 100	> 100	> 100		> 100	
CCC(=O)NC(NNS(=O)(=O)c1ccc(C)cc1)(C(F)(F)F)C(F)(F)F	> 100	> 100	> 100	> 100	> 10	> 100	> 100	> 100	> 100	> 100		> 100	48	> 100	> 100	
CCCCCCCCC#CCCCCCCC(F)C(=O)O (configuration not stated)	> 100	> 100		> 100	> 100	> 100	> 100	> 100	> 100	> 100		> 100	> 100	> 100	> 100	
